Reference: patent US11446402B2, “Composition for material delivery, including exosome mimetics derived from red blood cells, and use thereof” (Kyungpook National University Industry—Academic Cooperation …, priority 2018, dated 2022)

Tests used:
8505C cells = assay: Labeling of tumor cells with ^99mTc, uptake by gamma-counter; format: cell-based, human; details: 4 μCi
Procedure: A human atypical thyroid carcinoma 8505C cell line (Deutsche Sammlung von Mikroorganismen and Zellkulturen (DSMZ)) was cultured under a humidified atmosphere of 5% CO2 at 37° C. in Dulbecco's Modified Eagle Medium (DMEM, Invitrogen, Grand Island, N.Y., USA) supplemented with 10% fetal bovine serum (FBS), 10 U/ml penicillin, and 10 μg/ml streptomycin (Invitrogen). The 8505C cells were cultured together with ^99mTc-RBC-EM with various doses (0, 1, 2, and 4 μCi). 24 hours later, free ^99mTc-RBC-EM, which had not been absorbed in cells, were washed using PBS. Thereafter, the 8505C cells were cultured in a 20% FBS solution in a 37° C. CO2 incubator for 1, 6, 12, and 18 hours. The uptake values were measured by a gamma-counter (Cobra II, 1 Hewlett Packard, USA) at all the time points, and the amount of radiation measured was shown as a count per minute (cpm) unit. In order to compare the aforementioned results with the results of ^99mTc-RBC-EM (4 μCi), it was measured whether tumor cells were labeled with ^99mTc-RBC-EM using free ^99mTc (4 μCi).

[1] = In vivo gamma camera imaging after tail vein infusion; parameters: species or system C57BL/6 mice
Procedure: In vivo gamma camera imaging was performed on 5-week-old male C57BL/6 mice (Hamamatsu, Shizuoka). The gamma camera images were captured and taken for 10 min using a 2 mm pinhole collimator (Infinia II, GE Healthcare, Milwaukee, Wis., USA). A 200 μl volume of 37 MBq ^99mTC-RBC-EM was infused into the tail vein of mice. As a control, the same amount of free ^99mTc was infused. During the imaging, mice were continuously anesthetized using 2.5% isoflurane (Merial, Lyon, France). The gamma camera images were obtained by capturing the gamma camera images 1 hour and 3 hours after infusing ^99mTc-RBC-EM and free ^99mTc.
The region of interests (ROIs) in mice into which free ^99mTc was infused were the thyroid gland and the stomach, and the region of interests (ROIs) in mice into which ^99mTc-RBC-EM was infused were the thyroid gland and the liver/spleen. The right thigh part was used as a control of ROI. The average ROI count per pixel was calculated by dividing the same mice by the control ROI.

[99Tc] [free ^99mTc, technetium-99m]
absorption in 8505C cells (8505C cells): rarely absorbed
absorption in 8505C cells as the time is increased (8505C cells): not increased
organs of uptake in gamma camera image ([1]; 1 hour after injection, intravenous): strong uptake of free ^99mTc in the thyroid gland, the stomach, and the bladder
uptake in regions of interest 3 hours after the infusion compared to 1 hour ([1]; free ^99mTc: thyroid gland and stomach, ^99mTc-RBC-EM: thyroid gland, liver, spleen): significantly (P<0.001) increased
